“Also recorded” adds a separate entry of the source.
How the values were obtained:
[1] = test system: influenza nuclear protein (NP); set-up: species or system mice; settings: mouse, in vivo
hemagglutinin (HA) = test system: hemagglutinin (HA); set-up: species or system humans; settings: in vivo
[2] = Tolerability of i.m. injection in the mouse model; format: in vivo; settings: highest dose tested: 100 μg VR4700 plasmid+48 μg GAP-DMORIE+60 μg DPyPE per mouse
Protocol: All cytofectin/co-lipid formulations used in this study remained uniformly opaque for several hours after preparation at room temperature without any visible aggregation. Formulations were injected 20 min-1.5 hours after complexation.

Structure (SMILES)	level of antibody stimulation (GMT relative to that for pDNA alone) [1]	immune responses of human subjects, HA GMT antibody titer (hemagglutinin (HA))	humoral immune response, level of antibody titers from pDNA immunization [1]	discomfort or adverse reactions when injected into mouse muscle [2]
CCCCCCCC/C=C\CCCCCCCCOCC(C[N+](C)(C)CCNC(=O)C(CCCNCCCN)NCCCN)OCCCCCCCC/C=C\CCCCCCCC.Cl.Cl.Cl.Cl.[Cl-] (stereo not shown) [DOSPA, 2,3-dioleyloxy-N-(2-(sperminecarboxamido)ethyl)-N,N-dimethyl-1-propanaminium pentahydrochloride]	less active than DORIE; also recorded: dramatically decreases the level of antibody titers relative to those seen for pDNA alone	–	–	–
CCCCCCCCCCCCCCOCC(C[N+](C)(C)CCCN)OCCCCCCCCCCCCCC.[Br-] (racemic) [GAP-DMRIE, (±)-N-(3-aminopropyl)-N,N-dimethyl-2,3-(bis-tetradecyloxy)-1-propanaminium bromide]	no apparent advantage	–	–	–
CCCC/C=C\CCCCCCCCOCC(C[N+](C)(C)CCCN)OCCCCCCCC/C=C\CCCC.[Br-] (racemic) [GAP-DMORIE, (±)-N-(3-aminopropyl)-N,N-dimethyl-2,3-bis(syn-9-tetradeceneyloxy)-1-propanaminium bromide]	markedly enhances antibody responses; also recorded: more active than either DMORIE or GAP-DMRIE	induced	synergistic effect to further enhance the humoral immune response	did not appear to produce discomfort or result in any adverse reactions
CCCCCCCCCCCCCCOCC(C[N+](C)(C)CCO)OCCCCCCCCCCCCCC.[Br-] (racemic) [DMRIE, (±)-N-(2-hydroxyethyl)-N,N-dimethyl-2,3-bis(tetradecyloxy)-1-propanaminium bromide]	equally active	–	–	–

— patent US8415317B2, “Adjuvant compositions and methods for enhancing immune responses to polynucleotide-based vaccines” (priority 1999, dated 2013)
